Positions of bridges follow the written chain, without caps; N, C: chain ends. Non-standard residues stand in square brackets, D forms with d. Residues, ends and D or L forms follow the SMILES beside them. *: point of attachment. GlcA(β-D,1-O-dodecyl) = CCCCCCCCCCCCO[C@@H]1O[C@H](C(=O)*)[C@@H](O)[C@H](O)[C@H]1O; βGlcA(1-OMe) = CO[C@@H]1O[C@H](C(=O)*)[C@@H](O)[C@H](O)[C@H]1O; Phe(2,4,6-Me3) = Cc1cc(C)c(C[C@H](N)C(=O)O)c(C)c1; Dmt = Cc1cc(O)cc(C)c1C[C@H](N)C(=O)O; hArg = N=C(N)NCCCC[C@H](N)C(=O)O; Nle = CCCC[C@H](N)C(=O)O; Ac5c = NC1(C(=O)O)CCCC1; Aib = CC(C)(N)C(=O)O
Columns and labels:
PTH receptor (PTHR1) = biological target: T1, PTH receptor (PTHR1) (Homo sapiens, UniProt Q03431); assay: PTH1 cellular assay, cAMP, agonist mode (SaOS2 cells, Cerep); type: cell-based; conditions: for Emax: SAOS-2, read-out: Maximal response (% PTHrP)
T1 construct: Cerep SA
T1 sequence (Q03431 27-593): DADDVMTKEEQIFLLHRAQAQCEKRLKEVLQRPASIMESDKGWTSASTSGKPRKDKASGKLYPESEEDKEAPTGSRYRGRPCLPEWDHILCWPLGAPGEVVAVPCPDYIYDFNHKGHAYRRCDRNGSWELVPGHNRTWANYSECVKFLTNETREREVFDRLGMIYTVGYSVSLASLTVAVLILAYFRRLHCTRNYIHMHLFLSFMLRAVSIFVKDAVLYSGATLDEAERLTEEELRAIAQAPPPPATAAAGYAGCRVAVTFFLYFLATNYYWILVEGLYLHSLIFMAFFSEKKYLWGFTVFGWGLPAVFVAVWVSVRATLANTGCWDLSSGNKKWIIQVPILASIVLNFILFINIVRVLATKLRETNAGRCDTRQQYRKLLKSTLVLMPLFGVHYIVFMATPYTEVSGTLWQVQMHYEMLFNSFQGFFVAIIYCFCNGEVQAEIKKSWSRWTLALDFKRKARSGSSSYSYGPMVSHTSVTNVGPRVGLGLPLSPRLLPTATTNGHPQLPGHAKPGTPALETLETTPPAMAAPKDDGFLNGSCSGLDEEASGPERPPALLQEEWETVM
Experimental: Compounds were weighed precisely in an amount of approximately 1 mg and assayed in standard cellular assays (cerep SA). The readout is the amount of cAMP generated in the cells treated with the test compounds, in either agonist or antagonist mode.
Compounds were dissolved in water and diluted in assay buffer containing 1% bovine serum albumin.

mu opioid receptor = biological target: T2, mu opioid receptor (Homo sapiens, UniProt P35372); assay: mu opioid receptor cellular assay (MOP), agonist mode, cAMP readout (Cerep); type: cell-based
T2 construct: Cerep
T2 sequence (P35372 whole entry): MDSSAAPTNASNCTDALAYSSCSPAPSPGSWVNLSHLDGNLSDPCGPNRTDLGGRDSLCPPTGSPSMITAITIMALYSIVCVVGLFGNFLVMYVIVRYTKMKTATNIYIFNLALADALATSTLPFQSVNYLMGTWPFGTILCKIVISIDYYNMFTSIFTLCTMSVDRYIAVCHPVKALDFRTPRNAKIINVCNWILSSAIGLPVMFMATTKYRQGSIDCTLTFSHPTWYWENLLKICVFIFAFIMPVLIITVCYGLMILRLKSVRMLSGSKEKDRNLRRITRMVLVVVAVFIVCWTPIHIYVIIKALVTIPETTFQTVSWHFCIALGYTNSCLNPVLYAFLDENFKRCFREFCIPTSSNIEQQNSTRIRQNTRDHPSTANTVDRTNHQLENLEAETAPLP
Experimental: Compounds were weighed precisely in an amount of approximately 2 mg and assayed in standard cellular assays by the contract research organization Cerep, Inc. (Pullman, Wash.) as executed at their subsidiary, Cerep SA (Le Bois l'Eveque, France). The readout is the amount of cAMP generated in the cells treated with the test compounds, in either agonist or antagonist mode. The assays used were the mu opioid receptor cellular assay (MOP in agonist and antagonist mode), the delta2 opioid receptor cellular assay (DOP in agonist and antagonist mode) and the kappa opioid receptor cellular assay (KOP in agonist and antagonist mode). The assays used are described in Wang, J. B., et al. (1994) FEBS Lett 338: 217-222, Law, P. Y. and Loh, H. H. (1993) Mol Pharmacol 43: 684-693, and Avidor-Reiss, T., et al. (1995) FEBS Lett 361: 70-74. The stimulant for the cells in the DOR antagonist assay was 3×10E-8M DPDPE, a well-accepted DOR literature standard.

db/db mice = assay: db/db mice, blood glucose after s.c. dosing; type: in vivo, mouse; conditions: db/db mice, s.c., 250 nmole/kg
Experimental: The 60 female db/db B6BKS (D) Leprdb/J (strain 000697) mice for this study were approximately 8 to 9 weeks old at arrival (Jackson Laboratory, Bar Harbor, Me.). […] One group of 8 female mice served as the vehicle control and received the vehicle, 0.2% BSA in saline, pH 7.4. One additional group of 8 female mice received the positive control article, liraglutide, at a dose level of 50 nmoles/kg. The test articles, vehicle, and positive control article were administered on Day 1, at approximately 0, 7, and 24 hours during the study via subcutaneous injection at a dose volume of 6 mL/kg.
Clinical observations were conducted at receipt, prior to randomization, and daily from Days 1 to 5. Body weights were measured and recorded at receipt, prior to randomization, and daily from Days 1 to 5. Food consumption was measured and recorded daily from Days 1 to 5. Blood samples for glucose analysis were collected pretest (Day −3) and at 0, 1, 2, 4, 8, 10, 24, 48, 72, and 96 hours following the first dose on Day 1. At study termination all animals were euthanized and the carcasses were discarded without further evaluation.

SMILES | Characterization (PTH receptor (PTHR1)) | Emax (PTH receptor (PTHR1)) [%] | Mean Blood Glucose (db/db mice; 0 hr) [mg/dL] | Mean Blood Glucose (db/db mice; 10 hr) [mg/dL] | Mean Blood Glucose (db/db mice; 24 hr) [mg/dL] | Mean Blood Glucose (db/db mice; 48 hr) [mg/dL] | also measured
CCCCCCCCCCCCO[C@@H]1O[C@H](C(=O)NCCCC[C@H](NC(=O)[C@H](CCC(N)=O)NC(=O)[C@@H](NC(=O)[C@H](Cc2c[nH]c3ccccc23)NC(=O)[C@H](CCCNC(=N)N)NC(=O)[C@H](C)NC(=O)[C@H](CCCCNC(=N)N)NC(=O)[C@H](CCC(N)=O)NC(=O)[C@H](Cc2c[nH]cn2)NC(=O)[C@H](CCCC)NC(=O)[C@H](CC(C)C)NC(=O)[C@H](CCC(N)=O)NC(=O)[C@@H](NC(=O)[C@H](CCC(=O)O)NC(=O)C(C)(C)NC(=O)[C@@H](NC(=O)C2(N)CCCC2)C(C)C)[C@@H](C)CC)[C@@H](C)CC)C(N)=O)[C@@H](O)[C@H](O)[C@H]1O [EU-204] (H-[Ac5c]V[Aib]EIQL[Nle]HQ[hArg]ARWIQK(GlcA(β-D,1-O-dodecyl))-NH2) | agonist | 135 | – | – | – | – | EC50 (PTH receptor (PTHR1)): 20 nM
CCCCCCCCCCCCO[C@@H]1O[C@H](C(=O)NCCCC[C@H](NC(=O)C(C)(C)NC(=O)[C@H](CCC(N)=O)NC(=O)[C@@H](NC(=O)[C@H](Cc2c[nH]c3ccccc23)NC(=O)[C@H](CCCNC(=N)N)NC(=O)[C@H](C)NC(=O)[C@H](CCCCNC(=N)N)NC(=O)[C@H](CCC(N)=O)NC(=O)[C@H](Cc2c[nH]cn2)NC(=O)[C@H](CCCC)NC(=O)[C@H](CC(C)C)NC(=O)[C@H](CCC(N)=O)NC(=O)[C@@H](NC(=O)[C@H](CCC(=O)O)NC(=O)C(C)(C)NC(=O)[C@@H](NC(=O)C2(N)CCCC2)C(C)C)[C@@H](C)CC)[C@@H](C)CC)C(N)=O)[C@@H](O)[C@H](O)[C@H]1O [EU-207] (H-[Ac5c]V[Aib]EIQL[Nle]HQ[hArg]ARWIQ[Aib]K(GlcA(β-D,1-O-dodecyl))-NH2; N-terminus assumed) | agonist | 110 | – | – | – | – | –
CCCCCCCCCCCCO[C@@H]1O[C@H](C(=O)NCCCC[C@H](NC(=O)[C@H](CC(C)C)NC(=O)[C@H](Cc2ccccc2)NC(=O)[C@@H]2CCC(=O)NCCCC[C@H](NC(=O)[C@H](CC(=O)O)NC(=O)[C@H](CCC(N)=O)NC(=O)[C@@H](NC(=O)[C@H](Cc3c[nH]c4ccccc34)NC(=O)[C@H](CCCNC(=N)N)NC(=O)[C@H](C)NC(=O)[C@H](CCCCNC(=N)N)NC(=O)[C@H](CCC(N)=O)NC(=O)[C@H](Cc3c[nH]cn3)NC(=O)[C@H](CCCC)NC(=O)[C@H](CC(C)C)NC(=O)[C@H](CCC(N)=O)NC(=O)[C@@H](NC(=O)[C@H](CCC(=O)O)NC(=O)C(C)(C)NC(=O)[C@@H](NC(=O)C3(N)CCCC3)C(C)C)[C@@H](C)CC)[C@@H](C)CC)C(=O)N[C@@H](CCCNC(=N)N)C(=O)N[C@@H](CCCNC(=N)N)C(=O)N[C@@H](CCCNC(=N)N)C(=O)N2)C(=O)NC(C)(C)C(N)=O)[C@@H](O)[C@H](O)[C@H]1O [EU-284] (H-[Ac5c]V[Aib]EIQL[Nle]HQ[hArg]ARWIQDKRRREFLK(GlcA(β-D,1-O-dodecyl))[Aib]-NH2; lactam 18-22; N-terminus assumed) | agonist | 110 | – | – | – | – | –
CO[C@@H]1O[C@H](C(=O)NCCCC[C@H](NC(=O)[C@H](Cc2c(C)cc(C)cc2C)NC(=O)[C@@H]2CCCN2C(=O)[C@@H](N)Cc2c(C)cc(O)cc2C)C(N)=O)[C@@H](O)[C@H](O)[C@H]1O [EU-A101, Dmt-Pro-Tmp-Lys(C1-glucuronyl)-NH2] (H-[Dmt]P[Phe(2,4,6-Me3)]K(βGlcA(1-OMe))-NH2) | – | – | – | – | – | – | Characterization (MOP) (mu opioid receptor): pure agonist; EC50 (mu opioid receptor): 13 nM
CO[C@@H]1O[C@H](C(=O)NCCCC[C@@H](NC(=O)[C@@H](N)Cc2c(C)cc(O)cc2C)C(=O)N[C@@H](Cc2c(C)cc(C)cc2C)C(=O)N[C@@H](Cc2ccccc2)C(N)=O)[C@@H](O)[C@H](O)[C@H]1O [EU-A107, Dmt-D-Lys(C1-glucuronyl)-Tmp-Phe-NH2] (H-[Dmt][dK](βGlcA(1-OMe))[Phe(2,4,6-Me3)]F-NH2; N-terminus assumed) | – | – | – | – | – | – | Characterization (MOP) (mu opioid receptor): Agonist; EC50 (mu opioid receptor): 60 nM
CCCCCCCCO[C@@H]1O[C@H](C(=O)NCCCC[C@H](NC(=O)[C@@H](NC(=O)[C@H](Cc2ccccc2)NC(=O)[C@H](CCC(=O)O)NC(=O)[C@@H]2CCCCNC(=O)CC[C@H](NC(=O)[C@H](CC(=O)O)NC(=O)[C@H](CC(C)C)NC(=O)[C@H](Cc3ccc(O)cc3)NC(=O)[C@H](CCCCN)NC(=O)[C@H](CO)NC(=O)[C@H](Cc3ccc(O)cc3)NC(=O)[C@H](CC(=O)O)NC(=O)[C@H](CO)NC(=O)[C@@H](NC(=O)[C@H](Cc3ccccc3)NC(=O)[C@@H](NC(=O)CNC(=O)[C@H](CCC(N)=O)NC(=O)C(C)(C)NC(=O)[C@@H](N)Cc3c[nH]cn3)[C@@H](C)O)[C@@H](C)O)C(=O)N[C@@H](CCC(N)=O)C(=O)N[C@@H](C)C(=O)N[C@@H](C)C(=O)N2)[C@@H](C)CC)C(=O)N[C@@H](Cc2c[nH]c3ccccc23)C(=O)N[C@@H](CC(C)C)C(=O)N[C@@H](CC(C)C)C(=O)N[C@@H](CCC(N)=O)C(=O)N[C@H](C(N)=O)[C@@H](C)O)[C@@H](O)[C@H](O)[C@H]1O [EU-A992] | – | – | 405 | 104 | 112 | 130 | –
CCCCCCCCCCO[C@@H]1O[C@H](C(=O)NCCCC[C@H](NC(=O)[C@@H](NC(=O)[C@H](Cc2ccccc2)NC(=O)[C@H](CCC(=O)O)NC(=O)[C@@H]2CCCCNC(=O)CC[C@H](NC(=O)[C@H](CC(=O)O)NC(=O)[C@H](CC(C)C)NC(=O)[C@H](Cc3ccc(O)cc3)NC(=O)[C@H](CCCCN)NC(=O)[C@H](CO)NC(=O)[C@H](Cc3ccc(O)cc3)NC(=O)[C@H](CC(=O)O)NC(=O)[C@H](CO)NC(=O)[C@@H](NC(=O)[C@H](Cc3ccccc3)NC(=O)[C@@H](NC(=O)CNC(=O)[C@H](CCC(N)=O)NC(=O)C(C)(C)NC(=O)[C@@H](N)Cc3c[nH]cn3)[C@@H](C)O)[C@@H](C)O)C(=O)N[C@@H](CCC(N)=O)C(=O)N[C@@H](C)C(=O)N[C@@H](C)C(=O)N2)[C@@H](C)CC)C(=O)N[C@@H](Cc2c[nH]c3ccccc23)C(=O)N[C@@H](CC(C)C)C(=O)N[C@@H](CC(C)C)C(=O)N[C@@H](CCC(N)=O)C(=O)N[C@H](C(N)=O)[C@@H](C)O)[C@@H](O)[C@H](O)[C@H]1O [EU-A1167] | – | – | 379 | 171 | 117 | 113 | –
CCCCCCCCCCCO[C@@H]1O[C@H](C(=O)NCCCC[C@H](NC(=O)[C@@H](NC(=O)[C@H](Cc2ccccc2)NC(=O)[C@H](CCC(=O)O)NC(=O)[C@@H]2CCCCNC(=O)CC[C@H](NC(=O)[C@H](CC(=O)O)NC(=O)[C@H](CC(C)C)NC(=O)[C@H](Cc3ccc(O)cc3)NC(=O)[C@H](CCCCN)NC(=O)[C@H](CO)NC(=O)[C@H](Cc3ccc(O)cc3)NC(=O)[C@H](CC(=O)O)NC(=O)[C@H](CO)NC(=O)[C@@H](NC(=O)[C@H](Cc3ccccc3)NC(=O)[C@@H](NC(=O)CNC(=O)[C@H](CCC(N)=O)NC(=O)C(C)(C)NC(=O)[C@@H](N)Cc3c[nH]cn3)[C@@H](C)O)[C@@H](C)O)C(=O)N[C@@H](CCC(N)=O)C(=O)N[C@@H](C)C(=O)N[C@@H](C)C(=O)N2)[C@@H](C)CC)C(=O)N[C@@H](Cc2c[nH]c3ccccc23)C(=O)N[C@@H](CC(C)C)C(=O)N[C@@H](CC(C)C)C(=O)N[C@@H](CCC(N)=O)C(=O)N[C@H](C(N)=O)[C@@H](C)O)[C@@H](O)[C@H](O)[C@H]1O [EU-A1168] | – | – | 380 | 133 | 169 | 164 | –

From patent US10005817B2, “Peptide pharmaceuticals” (EUMEDERIS PHARMACEUTICALS, INC., priority 2012, dated 2018)
